Test results taken from patent US10435399B2, “HDAC6 inhibitory heterocyclic compound” (TAKEDA PHARMACEUTICAL COMPANY LIMITED, priority 2017, dated 2019).

Legend:
[1] = system: P301S mutant human tau (4R1N) Tg mouse; assay: Cognitive improvement action in neurodegenerative disease model mouse (novel object recognition test); assay type: in vivo
Experimental: Cognitive Improvement Action in Neurodegenerative Disease Model Mouse
A drug was suspended in 0.5% methyl cellulose to prepare a suspension for administration. The suspension was repeatedly administered into six month-old male P301S mutant human tau (4R1N) Tg mouse once a day for three months, and novel object recognition test was performed by the following method. The test is comprised of memory acquisition trial of object on the first day, and memory retention trial of familiar object and novel object on the second day. Drug was administered into the mouse 1 hr before the trials on both days. For acquisition trial, The mouse was put in a test box (30 cm×30 cm×25 cm) in which two identical objects were placed, and contact frequency and contact duration with the objects for 5 min were measured under 50 lux. […] Next day, one of the objects was replaced with new object, and contact frequency and contact duration with each object for 5 min were measured. Novelty Discrimination Index (NDI) as an index of cognitive function was calculated by novel object contact […]/(novel object contact duration+familiar object contact duration)%. […] After F test for vehicle administration wild-type group and vehicle administration Tg group, the significant difference between the two groups was analyzed by Student t-test or Welch test (indicated as ** p<0.01). […]

[2] = system: TK6 cells; assay: γH2AX assay using TK6 cells; assay type: cell-based, Human; conditions: 4 hr treatment, up to 100 μM
Experimental: γH2AX Assay Using TK6 Cells
Human lymphoblasts-derived TK6 cells were treated with the compounds of Examples 489, 512 or 519 at 0, 10, 30 or 100 μmol/L (final concentration) for 4 hr, and the presence or absence of DNA damage was evaluated by measuring phosphorylation of histone H2AX (γH2AX) as a marker. In addition, cytotoxicity after 24-hr treatment was also evaluated.
Exponentially growing TK6 cells were prepared at the cell density of 4×10^5 cells/mL in a culture medium, and was added to a 96-well plate by 100 μL/well. A test compound solution (2% DMSO) prepared using a culture solution, having twice the concentration on the above-mentioned final concentrations, was added thereto by 100 μL/well. This plate was incubated at 37° C., the cell suspension after 4 hr was sampled, and stained using In Vitro MultiFlow™ DNA Damage Kit (Litron), and H2AX phosphorylation level in each nucleus was measured using a flow cytometer and average value was calculated. The H2AX phosphorylation level in the concurrent vehicle control group was also measured and average value was calculated. The rate of change in the H2AX phosphorylation level in the treatment groups relative to that in the control group was calculated, and Dunnett test (significance level: two-tailed 1%) was performed. In addition, the cell suspension after 24 hr treatment was sampled, and the nucleus number was measured, and variation in the nucleus number in the treatment groups relative to that in the concurrent vehicle control group was used as an indicator of cytotoxicity. […] Therefore, the potential of the compounds for DNA strand breakage was judged to be negative under this test condition.

potential for DNA strand breakage (judgement) [2]: negative
Compound: O=C1c2cc(-c3nnc(C(F)F)o3)cnc2CN1[C@@H]1CCCC[C@H]1NC(=O)C(F)(F)C(F)(F)F [Example 489, N-((1R,2R)-2-(3-(5-(difluoromethyl)-1,3,4-oxadiazol-2-yl)-5-oxo-5,7-dihydro-6H-pyrrolo[3,4-b]pyridin-6-yl)cyclohexyl)-2,2,3,3,3-pentafluoropropanamide]
Novelty Discrimination Index (NDI) ([1]; 1 mg/kg once a day for three months): significant improvement in NDI was observed
Novelty Discrimination Index (NDI) ([1]; 3 mg/kg once a day for three months): significant improvement in NDI was observed
histone H2AX phosphorylation (γH2AX) resulted from DNA strand breakage [2]: did not induce histone H2AX phosphorylation
